From patent US6706734B2, “Arylpiperidinol and arylpiperidine derivatives and pharmaceuticals containing the same” (Daiichi Suntory Pharma Co., Ltd., priority 1996, dated 2004)

Columns and labels:
[1] = system: DBA/2N type mice; experiment: Audiogenic seizure suppressing effect; format: in vivo; settings: compound 10 mg/kg, i.p., audio stimulus after 20 minutes, suppression of average seizure score; for inhibition in vivo at 10 mg/kg: Mus musculus, ip, 20 min, read-out: Antiseizure effect (suppression rate %)
Experimental: Audiogenic Seizure Suppressing Effect
The audiogenic seizure suppressing effect of the compounds was evaluated by the method of Sarro et al. [G. B. De Sarro et al., Br. J. Pharmacol., 93, 247 (1988)]. That is, the compound dissolved in 10% 2-hydroxypropyl-β-cyclodextrin was administered intraperitoneally to DBA/2N type mice (male, 3 weeks old). After 20 minutes, a supersonic washer was used to apply audio stimulus of at least 90 dB for one minute. The wild running (WR), clonic seizures (clonus), tonic seizures (tonus), and respiratory arrest (RA) were observed.

[2] = system: Sodium channel; experiment: Inhibitory effect of veratrizine-induced sodium channel activity (synaptosome membrane potential, Rhodamine 6G); format: biochemical, Wistar rats; settings: compound 0.1 μM, rat brain synaptozomes, veratridine-induced depolarization
Experimental: Inhibitory Effect of Veratrizine-induced Sodium Channel Activity
The membrane potential of the synaptozomes prepared from the brain membrane of Wistar rats (male, 10 to 12 weeks old) was measured by the method of Aiuchi et al. (t. Aiuchi et al: Biochimi. Biophys. Acta. 771, 228 (1984)) using a membrane potential sensitive fluorescent dye Rhodamine 6G to evaluate the effects of suppression of the compound on the veratrizine-inducing depolarization response.

[3] = system: T-type Ca^2+ channel; experiment: T-type calcium channel inhibitory effect (whole-cell patch clamp, hippocampal CA1 pyramidal cells); settings: read-out: T-type Ca^2+ channel inhibitory effect IC50; suppression of peak current after one minute of application; rat hippocampal CA1 pyramidal cells
Experimental: T-Type Calcium Channel Inhibitory Effect
The hippocampal CA1 pyramidal cells were isolated from Wistar rats (female, 1 week old) according to the method reported by Takahashi et al. [K. Takahashi et al.; J. Pharmacol. Exp. Ther., 256, 169 (1991)] and the T-type calcium current under conditions of a fixed membrane potential was measured using the whole-cell configration of the patch clamp technique. The effects of the compounds were evaluated from the rate of suppression of the peak current after one minute of application using the concentration clamp method.

Row | Compound | inhibition in vivo at 10 mg/kg [1] [%] | Anti-veratridine effect (inhibiting rate %) [2] [%] | other results
1 | O=C(CN1CCC(O)(c2ccc(Cc3ccc(F)cc3)cc2)CC1)N[C@@H]1C[C@H]1c1ccccc1 (relative stereo) [Compound 54, N-(trans-2-phenyl-1-cyclopropyl)-4-[4-(4-fluorophenyl)methylphenyl]-4-hydroxy-1-piperidinacetamide] | 58 | 20.4 | –
2 | Fc1cc(C2CCN(C/C=C/c3ccccc3)CC2)ccc1-c1ccccc1 [Compound 18, (E)-4-(3-fluoro-4-phenyl)phenyl-1-(3-phenyl-2-propenyl)piperidine] | 62 | 13.1 | –
3 | O=C(CN1CCC(c2ccc(-c3ccccc3)c(F)c2)CC1)c1ccccc1 [Compound 19, 4-(3-fluoro-4-phenyl)phenyl-1-(2-phenyl-2-oxoethyl)piperidine] | 52 | 12.9 | –
4 | O=C(CN1CCC(O)(c2ccc(-c3ccccc3)c(F)c2)CC1)c1ccccc1 [Compound 20, 4-(3-fluoro-4-phenyl)phenyl-1-(2-phenyl-2-oxoethyl)-4-piperidinol] | 91.3 | 20.2 | IC50 [3]: 3000 nM
5 | COc1ccc(C(=O)CN2CCC(O)(c3ccc(-c4ccccc4)c(F)c3)CC2)cc1 [Compound 21, 4-(3-fluoro-4-phenyl)phenyl-1-[2-(4-methoxyphenyl)-2-oxoethyl]-4-piperidinol] | 91.3 | 18.6 | –
6 | C(=C\c1ccccc1)/CN1CCC(c2ccc(-c3ccccc3)cc2)CC1 [Compound 22, (E)-4-(4-phenyl)phenyl-1-(3-phenyl-2-propenyl)piperidine] | 72 | – | –
7 | O=C(CN1CCC(c2ccc(-c3ccccc3)cc2)CC1)c1ccccc1 [Compound 23, 4-(4-phenyl)phenyl-1-(2-phenyl-2-oxoethyl)piperidine] | 84 | 11.3 | –
8 | OC(COc1ccccc1)CN1CCC(O)(c2ccc(-c3ccccc3)c(F)c2)CC1 (stereo not shown) [Compound 24, 4-(3-fluoro-4-phenyl)phenyl-1-(2-hydroxy-3-phenoxy)propyl-4-piperidinol] | 74 | 23.8 | –
9 | Fc1cc(C2CCN(CC3CC3c3ccccc3)CC2)ccc1-c1ccccc1 (stereo not drawn) [Compound 25, 4-(3-fluoro-4-phenyl)phenyl-1-(trans-2-phenyl-1-cyclopropylmethyl)piperidine] | 54 | 57 | –
10 | OC1(c2ccc(-c3ccccc3)c(F)c2)CCN(CC2(c3ccccc3)CC2)CC1 [Compound 26, 4-(3-fluoro-4-phenyl)phenyl-1-(1-phenyl-1-cyclopropane)methyl-1-piperidinol] | – | 30 | –
11 | c1ccc(-c2ccc(C3CCN(CC4CC4c4ccccc4)CC3)cc2)cc1 (stereo not drawn) [Compound 27, 4-(4-phenyl)phenyl-1-(trans-2-phenyl-1-cyclopropylmethyl)piperidine] | 52 | 41 | –
12 | c1ccc(-c2ccc(C3CCN(CC4(c5ccccc5)CC4)CC3)cc2)cc1 [Compound 28, 4-(4-phenyl)phenyl-1-(1-phenyl-1-cyclopropane)methylpiperidine] | 56 | 24 | –
13 | OC(COc1ccccc1)CN1CCC(c2ccc(-c3ccccc3)cc2)CC1 (stereo not shown) [Compound 29, 4-(4-phenyl)phenyl-1-(2-hydroxy-3-phenoxy)propylpiperidine] | 68 | 40 | –
14 | O=C(CN1CCC(c2ccc(-c3ccccc3)c(F)c2)CC1)NC1CC1c1ccccc1 (stereo not drawn) [Compound 31, N-(trans-2-phenyl-1-cyclopropyl)-4-(3-fluoro-4-phenyl)phenyl-1-piperidinacetamide] | – | 14 | –
15 | OC1(c2ccc(-c3ccccc3)c(F)c2)CCN(CC2CC2c2ccccc2)CC1 (stereo not shown) [Compound 32] | – | 27.3 | –
16 | OC1(c2ccc(-c3ccccc3)cc2)CCN(C/C=C/c2ccccc2)CC1 [Compound 33, (E)-4-(4-phenyl)phenyl-1-(3-phenyl-2-propenyl)-4-piperidinol] | – | 12.8 | –
17 | O=C(CN1CCC(O)(c2ccc(Oc3ccccc3)cc2)CC1)c1ccccc1 [Compound 35, 4-(4-phenoxy)phenyl-1-(2-phenyl-2-oxoethyl)-4-piperidinol] | 98 | 27.7 | –

Row | Compound | inhibition in vivo at 10 mg/kg [1] [%] | Anti-veratridine effect (inhibiting rate %) [2] [%] | other results
18 | OC(COc1ccccc1)CN1CCC(O)(c2ccc(Oc3ccccc3)cc2)CC1 (stereo not shown) [Compound 36, 4-(4-phenoxy)phenyl-1-(2-hydroxy-3-phenoxy)propyl-4-piperidinol] | 68 | – | Anti-veratridine effect (inhibiting rate %) ([2]; 0.1 µM): 28.6%
19 | OC1(c2ccc(Cc3ccc(F)cc3)cc2)CCN(C/C=C/c2ccccc2)CC1 [Compound 37, (E)-4-[4-(4-fluorophenyl)methylphenyl]-1-1-(3-phenyl-2-propenyl)-4-piperidinol] | 88 | 39.7 | –
20 | O=C(CN1CCC(O)(c2ccc(Cc3ccc(F)cc3)cc2)CC1)c1ccccc1 [Compound 38, 4-[4-(4-fluorophenyl)methylphenyl]-1-(2-phenyl-2-oxoethyl)-4-piperidinol] | 82 | 18 | –
21 | O=C(CN1CCC(O)(c2ccc(-c3ccccc3)cc2)CC1)c1ccccc1 [Compound 40, 1-(2-phenyl-2-oxoethyl)-4-(4-phenyl)phenyl-4-piperidinol] | 84 | 23 | –
22 | OC(COc1ccccc1)CN1CCC(O)(c2ccc(-c3ccccc3)cc2)CC1 (stereo not shown) [Compound 41, 1-(2-hydroxy-3-phenoxy)propyl-4-(4-phenyl)phenyl-4-piperidinol] | 92 | 23.7 | –
23 | OC(CN1CCC(O)(c2ccc(-c3ccccc3)cc2)CC1)c1ccccc1 (stereo not shown) [Compound 44, 1-(2-hydroxy-2-phenyl)ethyl-4-(4-phenyl)phenyl-4-piperidinol] | 68 | – | –
24 | O[C@H](COc1ccccc1)CN1CCC(O)(c2ccc(Oc3ccccc3)cc2)CC1 [Compound 45, (S)-4-(4-phenoxy)phenyl-1-(2-hydroxy-3-phenoxy)propyl-4-piperidinol] | – | – | Antiseizure effect (suppression rate %) ([1]; 10 mg/kg): 82%; Anti-veratridine effect (inhibiting rate %) ([2]; 0.1 µM): 19.8%
25 | O[C@@H](COc1ccccc1)CN1CCC(O)(c2ccc(Oc3ccccc3)cc2)CC1 [Compound 46, (R)-4-(4-phenoxy)phenyl-1-(2-hydroxy-3-phenoxy)propyl-4-piperidinol] | – | 19.8 | Antiseizure effect (suppression rate %) [1]: 82%
26 | O[C@H](COc1ccccc1)CN1CCC(O)(c2ccc(Cc3ccc(F)cc3)cc2)CC1 [Compound 47, (S)-4-[4-(4-fluorophenyl)methylphenyl]-1-(2-hydroxy-3-phenoxy)propyl-4-piperidinol] | – | – | Antiseizure effect (suppression rate %) ([1]; 10 mg/kg): 78%; Anti-veratridine effect (inhibiting rate %) ([2]; 0.1 µM): 39.5%
27 | O[C@@H](COc1ccccc1)CN1CCC(O)(c2ccc(Cc3ccc(F)cc3)cc2)CC1 [Compound 48, (R)-4-[4-(4-fluorophenyl)methylphenyl]-1-(2-hydroxy-3-phenoxy)propyl-4-piperidinol] | 82 | 22.7 | –
28 | OC1(c2ccc(Oc3ccccc3)cc2)CCN(CC2(c3ccccc3)CC2)CC1 [Compound 49, 4-(4-phenoxy)phenyl-1-(1-phenyl-1-cyclopropane)methyl-4-piperidinol] | 50 | 18.9 | –
29 | OC1(c2ccc(Oc3ccccc3)cc2)CCN(CC2CC2c2ccccc2)CC1 (stereo not drawn) [Compound 50, 4-(4-phenoxy)phenyl-1-(trans-2-phenyl-1-cyclopropylmethyl)-4-piperidinol] | 56 | 33.4 | –
30 | O=C(CN1CCC(O)(c2ccc(Oc3ccccc3)cc2)CC1)NC1CC1c1ccccc1 (stereo not drawn) [Compound 53, N-(trans-2-phenyl-1-cyclopropyl)-4-hydroxy-4-(4-phenoxy)phenyl-1-piperidinacetamide] | 74 | 32.3 | –
31 | Cc1cccc(C)c1NC(=O)CN1CCC(O)(c2ccc(Oc3ccccc3)cc2)CC1 [Compound 55, N-(2,6-dimethylphenyl)-4-hydroxy-4-(4-phenoxy)phenyl-1-piperidinacetamide] | 71.7 | 28.3 | –
32 | O=C(CN1CCC(O)(c2ccc(Oc3ccccc3)cc2)CC1)NC1(c2ccccc2)CC1 [Compound 57, N-(1-phenyl)cyclopropyl-4-hydroxy-4-(4-phenoxy)phenyl-1-piperidinacetamide] | 60 | 40.1 | –
33 | O=C(CN1CCC(O)(c2ccc(Cc3ccc(F)cc3)cc2)CC1)NC1(c2ccccc2)CC1 [Compound 58, N-(1-phenyl)cyclopropyl-4-hydroxy-4-[4-(4-fluorophenyl)methylphenyl]-1-piperidinacetamide] | 51.7 | 11.3 | –
